Laboratory results as given in ChEMBL document CHEMBL1201862, “PubChem BioAssay data set” (2004).
The source made the active and inactive calls.

Columns and labels:
[1] = test system: Streptococcus sp. 'group A'; test: Streptococcus pyogenes SK(-)GAS viability under kanamycin – luminescence, BacTiterGlo, confirmation, counter-screen for streptokinase expression inhibitor project, dose response (AID 1900); format: functional, organism-based
Streptokinase A = molecular target: T1, Streptokinase A (Streptococcus pyogenes serotype M1, UniProt P10520); test: viability-normalized secreted streptokinase activity reduction – plasminogen activation absorbance, OD405, dose response (AID 1914); format: functional, Streptococcus pyogenes M1 GAS;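 further: secreted streptokinase activity via plasminogen activation per viability signal from cell pellet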
T1 sequence (P10520 whole entry): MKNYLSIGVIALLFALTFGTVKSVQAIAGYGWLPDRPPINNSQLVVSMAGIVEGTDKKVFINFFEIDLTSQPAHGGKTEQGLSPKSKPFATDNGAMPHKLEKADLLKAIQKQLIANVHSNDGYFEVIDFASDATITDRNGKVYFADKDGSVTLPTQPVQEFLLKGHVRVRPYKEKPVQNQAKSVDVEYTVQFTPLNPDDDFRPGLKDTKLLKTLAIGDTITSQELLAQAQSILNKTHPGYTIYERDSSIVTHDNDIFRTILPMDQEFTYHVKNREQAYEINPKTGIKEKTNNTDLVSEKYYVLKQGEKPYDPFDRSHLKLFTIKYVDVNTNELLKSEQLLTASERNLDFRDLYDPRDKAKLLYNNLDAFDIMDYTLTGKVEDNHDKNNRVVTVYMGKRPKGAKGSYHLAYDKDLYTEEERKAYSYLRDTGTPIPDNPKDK

[2] = HPDE-C7 pancreatic duct cell viability loss – fluorescence, HTS (AID 430); format: functional, cell-based; conditions: Homo sapiens
[3] = viability loss of HPDE-C7K cells – cell-based, fluorescence, HTS, primary screen (AID 431); format: functional; conditions: Homo sapiens
Streptococcus = test: GAS UMAA2166 growth inhibition – luminescence, BacTiterGlo, counter-screen for streptokinase expression inhibitor project, dose response (AID 1915); format: functional, organism-based;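 further: potency for reduction of bacterial viability or growth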
[4] = molecular target: Heat shock protein HSP 90-alpha (Homo sapiens, UniProt P07900); format: functional, organism-based
[5] = molecular target: T2, Serine/threonine-protein phosphatase (Homo sapiens, UniProt Q9BPW0); test: Counterscreen for inhibitors of PP1: fluorescence-based biochemical high throughput dose response assay to identify inhibitors of Protein Phosphatase 5 (PP5). [Related pubchem assays: 2034 (Summary (PP5 inhibitors)), 1987 (PP5 inhibitors in singlate), 2235 (PP1 inhibitors in singlate)]
T2 sequence (Q9BPW0 whole entry): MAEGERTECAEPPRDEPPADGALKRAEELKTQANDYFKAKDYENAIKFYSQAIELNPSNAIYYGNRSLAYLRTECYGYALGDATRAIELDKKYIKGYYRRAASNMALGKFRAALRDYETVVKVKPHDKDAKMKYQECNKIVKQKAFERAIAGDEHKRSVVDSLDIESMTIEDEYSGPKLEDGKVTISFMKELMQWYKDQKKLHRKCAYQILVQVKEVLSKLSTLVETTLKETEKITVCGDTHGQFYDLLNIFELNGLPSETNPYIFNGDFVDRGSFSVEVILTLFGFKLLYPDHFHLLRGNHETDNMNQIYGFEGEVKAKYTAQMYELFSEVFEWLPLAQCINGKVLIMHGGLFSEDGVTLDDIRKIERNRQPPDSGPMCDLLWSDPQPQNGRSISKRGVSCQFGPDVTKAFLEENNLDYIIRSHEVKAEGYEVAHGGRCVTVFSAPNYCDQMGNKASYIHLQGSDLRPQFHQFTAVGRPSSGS

[6] = HEK-293T cell viability reduction – luminescence, B-cell screen hits, cytotoxicity control for BCR NF-kB inhibitor project, dose response (AID 489021); format: functional, cell-based;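 further: HEK-293T cells carrying an NF-kB luciferase reporter; cells exposed to compound for about 14 hours before viability readout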
[7] = A cytotoxicity screen of small molecule inhibitors of the PhoP region in Salmonella typhi identified in the primary screen. [Related pubchem assays: 1850, 1864, 1985 ]; format: functional
HEK293 [8] = test: inhibition of NOD1-driven NF-kB reporter – cell-based, luminescence, uHTS, primary screen (AID 1578); format: functional; conditions: Homo sapiens
HEK293 [9] = test: cells; format: functional, cell-based; conditions: Homo sapiens
HEK293 [10] = test: cells; format: functional, cell-based; conditions: Homo sapiens; remark: listed apart in the source
[11] = molecular target: Nucleotide-binding oligomerization domain-containing protein 2 (Homo sapiens, UniProt Q9HC29); test: inhibition of NOD2-driven NF-kB reporter – cell-based, luminescence, uHTS, HEK293 (AID 1566); format: functional
Chain of Nucleotide-binding oligomerization domain-containing protein 2 (Q9HC29 whole entry, the tested form may be a part): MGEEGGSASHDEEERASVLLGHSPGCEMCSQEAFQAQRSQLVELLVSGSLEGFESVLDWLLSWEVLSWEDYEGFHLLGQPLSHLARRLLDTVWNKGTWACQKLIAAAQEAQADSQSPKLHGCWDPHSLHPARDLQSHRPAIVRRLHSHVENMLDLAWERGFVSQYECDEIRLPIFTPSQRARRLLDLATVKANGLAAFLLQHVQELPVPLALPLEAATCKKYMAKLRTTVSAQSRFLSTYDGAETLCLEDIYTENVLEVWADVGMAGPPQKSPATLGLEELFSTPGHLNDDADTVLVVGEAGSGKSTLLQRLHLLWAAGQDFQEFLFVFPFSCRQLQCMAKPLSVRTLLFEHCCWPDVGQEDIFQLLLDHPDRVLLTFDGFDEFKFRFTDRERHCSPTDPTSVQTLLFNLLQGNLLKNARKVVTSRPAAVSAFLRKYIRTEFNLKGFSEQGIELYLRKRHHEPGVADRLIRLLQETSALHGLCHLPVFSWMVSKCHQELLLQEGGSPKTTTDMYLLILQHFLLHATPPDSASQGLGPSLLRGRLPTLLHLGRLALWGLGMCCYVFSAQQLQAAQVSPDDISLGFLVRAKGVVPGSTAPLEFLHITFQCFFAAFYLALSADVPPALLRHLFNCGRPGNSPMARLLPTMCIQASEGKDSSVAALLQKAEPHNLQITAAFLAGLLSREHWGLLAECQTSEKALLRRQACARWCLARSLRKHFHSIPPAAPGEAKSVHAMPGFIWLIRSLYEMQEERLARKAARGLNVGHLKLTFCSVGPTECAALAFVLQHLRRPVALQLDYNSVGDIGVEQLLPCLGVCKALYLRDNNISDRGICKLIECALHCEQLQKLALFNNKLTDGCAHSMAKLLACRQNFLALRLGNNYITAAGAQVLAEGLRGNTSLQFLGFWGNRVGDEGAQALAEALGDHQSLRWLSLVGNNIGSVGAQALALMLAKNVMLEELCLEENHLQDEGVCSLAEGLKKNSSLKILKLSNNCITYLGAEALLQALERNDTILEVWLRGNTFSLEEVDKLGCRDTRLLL

HEK293 [12] = test: NOD2 signaling inhibitors in MDP-stimulated cells, cell-based, uHTS, luminescence (AID 2001); format: functional; conditions: Homo sapiens
HEK293 [13] = test: cells; format: functional, cell-based; conditions: Homo sapiens; remark: listed apart in the source
[14] = microbe, parasite or virus in culture; format: functional; conditions: Mycobacterium tuberculosis
Aspartyl aminopeptidase = molecular target: T3, Aspartyl aminopeptidase (Plasmodium falciparum 3D7, UniProt Q8I2J3)
T3 sequence (Q8I2J3 whole entry): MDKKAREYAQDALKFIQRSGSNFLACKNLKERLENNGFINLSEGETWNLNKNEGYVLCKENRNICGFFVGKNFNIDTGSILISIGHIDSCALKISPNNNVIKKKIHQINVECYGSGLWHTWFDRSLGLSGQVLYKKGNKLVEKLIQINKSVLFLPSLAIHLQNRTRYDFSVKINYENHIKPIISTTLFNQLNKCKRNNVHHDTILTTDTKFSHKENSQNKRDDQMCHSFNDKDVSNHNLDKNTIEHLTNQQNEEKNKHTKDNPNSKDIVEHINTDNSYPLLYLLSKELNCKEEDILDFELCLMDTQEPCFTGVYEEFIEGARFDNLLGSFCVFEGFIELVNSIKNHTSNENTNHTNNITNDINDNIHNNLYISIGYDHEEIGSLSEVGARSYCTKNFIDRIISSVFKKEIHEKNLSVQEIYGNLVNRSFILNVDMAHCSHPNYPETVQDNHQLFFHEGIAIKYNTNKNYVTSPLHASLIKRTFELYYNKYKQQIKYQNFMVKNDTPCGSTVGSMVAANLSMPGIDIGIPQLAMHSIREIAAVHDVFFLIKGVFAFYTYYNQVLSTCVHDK

Procathepsin L = Procathepsin L (Homo sapiens, UniProt P07711)
Chain of Procathepsin L (P07711 whole entry): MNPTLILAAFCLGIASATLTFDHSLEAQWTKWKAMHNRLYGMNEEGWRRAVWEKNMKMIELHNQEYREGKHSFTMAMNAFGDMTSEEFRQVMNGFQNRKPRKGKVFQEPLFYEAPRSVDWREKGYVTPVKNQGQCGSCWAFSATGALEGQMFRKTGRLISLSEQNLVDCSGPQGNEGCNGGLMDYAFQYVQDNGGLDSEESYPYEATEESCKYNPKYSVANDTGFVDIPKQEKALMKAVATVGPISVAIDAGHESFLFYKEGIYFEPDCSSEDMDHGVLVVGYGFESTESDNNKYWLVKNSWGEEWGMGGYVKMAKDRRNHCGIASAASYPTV

Large T antigen = Large T antigen (Simian virus 40, UniProt P03070); format: functional, Betapolyomavirus macacae;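 further: Confirmatory-stage PubChem screen for compounds that inhibit SV40 T antigen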
Chain of Large T antigen (P03070 whole entry): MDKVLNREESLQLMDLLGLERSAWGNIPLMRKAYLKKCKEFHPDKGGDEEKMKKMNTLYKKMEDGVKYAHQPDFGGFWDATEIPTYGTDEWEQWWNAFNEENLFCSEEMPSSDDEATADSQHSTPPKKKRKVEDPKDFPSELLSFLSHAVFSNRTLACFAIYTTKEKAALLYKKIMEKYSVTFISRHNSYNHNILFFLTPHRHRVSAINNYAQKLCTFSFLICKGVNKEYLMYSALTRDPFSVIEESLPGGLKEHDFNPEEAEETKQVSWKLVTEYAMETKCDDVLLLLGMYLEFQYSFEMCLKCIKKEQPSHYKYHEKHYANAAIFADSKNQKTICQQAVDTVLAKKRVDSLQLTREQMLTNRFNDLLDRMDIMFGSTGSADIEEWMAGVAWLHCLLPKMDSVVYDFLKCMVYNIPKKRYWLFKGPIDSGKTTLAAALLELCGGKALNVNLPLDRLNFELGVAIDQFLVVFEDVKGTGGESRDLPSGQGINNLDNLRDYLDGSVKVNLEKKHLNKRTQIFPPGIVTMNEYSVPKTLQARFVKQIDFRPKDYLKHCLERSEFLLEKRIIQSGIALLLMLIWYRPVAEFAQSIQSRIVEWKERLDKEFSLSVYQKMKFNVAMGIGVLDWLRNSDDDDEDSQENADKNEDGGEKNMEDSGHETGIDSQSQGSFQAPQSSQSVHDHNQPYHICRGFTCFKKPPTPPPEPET

[15] = Trypanosoma cruzi growth suppression in host cells – NIH3T3 host cells, beta-gal luminescence, confirmation (AID 2044); format: functional, cell-based;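 further: intracellular parasites grown in NIH/3T3 mouse fibroblasts as host cells; luminescent beta-galactosidase reporter signal from transgenic T. cruzi replicating inside host cells; inhibitors lower the luminescence signal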
[16] = NIH3T3 cell viability loss – ATP luminescence, mouse fibroblasts, counter-screen, dose response (AID 2010); format: functional, cell-based;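 further: cells exposed to compound for about 90 hours before reading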
[17] = molecular target: DNA dC->dU-editing enzyme APOBEC-3G (Homo sapiens, UniProt Q9HC16); test: Dose Response confirmation of small molecule APOBEC3G DNA Deaminase Inhibitors via a fluorescence-based single-stranded DNA deaminase assay. [Related pubchem assays (depositor defined):AID493012, AID493028]; format: functional
Chain of DNA dC->dU-editing enzyme APOBEC-3G (Q9HC16 whole entry): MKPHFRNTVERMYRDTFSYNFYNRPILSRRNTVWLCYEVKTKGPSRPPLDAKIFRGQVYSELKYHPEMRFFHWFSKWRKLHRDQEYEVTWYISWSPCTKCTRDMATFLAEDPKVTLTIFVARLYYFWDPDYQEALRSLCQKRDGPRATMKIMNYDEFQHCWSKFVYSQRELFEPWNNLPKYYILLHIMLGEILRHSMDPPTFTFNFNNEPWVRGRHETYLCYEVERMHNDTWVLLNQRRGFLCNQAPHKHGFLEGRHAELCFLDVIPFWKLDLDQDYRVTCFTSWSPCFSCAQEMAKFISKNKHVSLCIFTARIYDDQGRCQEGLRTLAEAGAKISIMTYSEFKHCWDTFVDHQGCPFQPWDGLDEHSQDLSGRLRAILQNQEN

Cc1cc2n(n1)C(c1c[nH]c3ccccc13)Nc1ccccc1-2 (configuration not stated)
EC50 [1]: 8.99 µM (active) | EC50 (Streptokinase A): 18.1 µM (active) | EC50 [2]: 12 µM (active) | EC50 [3]: 12.9 µM (active) | EC50 (Streptococcus): > 150 µM (not active) | AC50 [4]: 6.08 µM (active)

O=C1OC(=O)C2C3CCC(O3)C12 (configuration not stated)
IC50 [5]: 2.57 µM (active)

CCN(CC)c1ccc(/C=N/N=C(c2ccccc2)c2ccccc2)c(O)c1
IC50 [6]: > 80 µM (inactive)

Cc1ccc(C)c2nc(O)c(CN(Cc3cccnc3)C(S)=NCc3ccco3)cc12
EC50 [7]: > 50 µM (active)

Cc1ccc(-c2csc(N3CCN(CCCn4c(-c5ccncc5)nc5ccccc54)CC3)n2)cc1
EC50 (HEK293 [8]): 6.11 µM (active) | IC50 (HEK293 [9]): 4.3 µM (active) | IC50 (HEK293 [10]): 11.4 µM (active) | EC50 [11]: 12.3 µM (active) | IC50 (HEK293 [12]): 4.62 µM (active) | IC50 (HEK293 [13]): > 20 µM (inactive) | CC50 [14]: > 40 µM (active)

COc1ccc(NC(=O)Cn2c(=O)oc3cc(S(=O)(=O)N4CCCC4)ccc32)c(OC)c1
EC50 [7]: > 50 µM (active)

O=c1c2c([N+](=O)[O-])cc([N+](=O)[O-])cc2sn1Cc1ccccc1
EC50 [1]: 4.35 µM (active) | IC50 (Aspartyl aminopeptidase): > 0.101 µM (active) | IC50 (Procathepsin L): > 59.6 µM (not active) | EC50 (Streptokinase A): > 150 µM (not active) | IC50 (Large T antigen): 13.1 µM (active) | EC50 [15]: 1.77 µM (active) | EC50 [16]: 16.9 µM (active) | EC50 (Streptococcus): 16.1 µM (active) | IC50 [17]: 4.16 µM (active)

COc1cc(OC)c(/C=N/NC(N)=S)cc1Br
IC50 [6]: > 80 µM (inactive)
